Assays:
[1] = system: spontaneously hypertensive rats of the SHR strain; experiment: Antihypertensive activity in conscious spontaneously hypertensive rats (blood pressure and heart rate); details: po; for 12 Hour Area (integrated value of the area above the graph of blood pressure change against time): 12 hours after administration
Protocol: The test animals were spontaneously hypertensive rats of the SHR strain, each aged about 15 weeks. The antihypertensive activities of the test compounds were determined in these rats as follows.
Each animal was anaesthetized with sodium pentobarbital (50 mg/kg, intraperitoneally) and a polyethylene cannula was inserted into the abdominal aorta by the method of Weeks and Jones [J. R. Weeks and J. A. Jones, Proc. Soc. Exptl. […] The other end of the cannula left the animal's body at, and was fixed to, the neck. About 1 week after this surgery, when the animal had completely recovered from surgical stress, the free end of the aortic cannula was connected to a sphygmomanmeter to measure blood pressure and heart rate of the animal directly in the conscious, aparalytic and unrestrained state.
At this time, a test compound suspended in a 0.3% w/v aqueous carboxymethylcellulose solution was administered orally in the dose shown in the following Table 8.
Tmax : the time in hours after administration of the compound under test before the maximum change in blood pressure was recorded;
To 0.5 max : the time in hours after administration of the compound under test which is required for the blood pressure to return to one half of its maximum value;

isolated rat aorta = experiment: Calcium antagonism: contractile response of isolated rat aorta to calcium chloride; format: cell-based; details: test compound 5 nM
Protocol: An isolated rat aorta was suspended in a calcium-free and high potassium Krebs-Henseleit solution maintained at a temperature of 37° C. The contractile response of the aorta to calcium chloride in concentrations ranging from 10^-5 to 10^-2 M was recorded by means of an isometric transducer. The dose-response curve of the aorta was obtained before and after addition of a test compound at a concentration of 5 nM. Addition of the test compound shifted the dose-response curve to the right, the magnitude of the shift depending upon the potency of the Ca^++ -blocking activity.

[2] = SHR, compared with nifedipine and nicardipine

Row | SMILES | T0.5 max (time after administration for the blood pressure to return to one half of its maximum value) ([1]; 1 mg/kg, SHR) | Tmax (time after administration before the maximum change in blood pressure) ([1]; 1 mg/kg, SHR) | 12 Hour Area (integrated value of the area above the graph of blood pressure change against time) ([1]; 1 mg/kg, SHR) | 12 Hour Area (integrated value of the area above the graph of blood pressure change against time) ([1]; 3 mg/kg, SHR) | further results
1 | CC1=C(C(=O)OC(C)C)C(c2cccc([N+](=O)[O-])c2)C(C(=O)OC2CCN(C(c3ccccc3)c3ccccc3)C2)=C(N)N1 (stereo not drawn) [Compound 2-8, 3-(1-Benzhydryl-3-pyrrolidinyl) 5-isopropyl 2-amino-6-methyl-4-(3-nitrophenyl)-1,4-dihydropyridine-3,5-dicarboxylate] | 11.2 h | 6.0 h | -172 | – | –
2 | CC1=C(C(=O)OC(C)C)C(c2cccc([N+](=O)[O-])c2)C(C(=O)OC2CCCN(C(c3ccccc3)c3ccccc3)C2)=C(N)N1 (stereo not drawn) [Compound 3-8, 3-(1-Benzhydryl-3-piperidyl) 5-isopropyl 2-amino-6-methyl-4-(3-nitrophenyl)-1,4-dihydropyridine-3,5-dicarboxylate] | 11.4 h | 7.0 h | -141 | – | –
3 | COC(=O)C1=C(C)NC(C)=C(C(=O)OCCN(C)Cc2ccccc2)C1c1cccc([N+](=O)[O-])c1 (stereo not drawn) [nicardipine, reference compound] | – | – | – | -175 | T0.5 max (time after administration for the blood pressure to return to one half of its maximum value) ([1]; 3 mg/kg, SHR): 5.3 h; Tmax (time after administration before the maximum change in blood pressure) ([1]; 3 mg/kg, SHR): 0.5 h
4 | COC(=O)C1=C(C)NC(C)=C(C(=O)OC)C1c1ccccc1[N+](=O)[O-] [nifedipine, reference compound] | – | – | – | -237 | heart rate ([1]; SHR): increased heart rate
5 | CC1=C(C(=O)OC(C)C)C(c2cccc([N+](=O)[O-])c2)C(C(=O)OC2CN(C(c3ccc(F)cc3)c3ccc(F)cc3)C2)=C(N)N1 (stereo not drawn) [Compound 1-68, 3-[1-(4,4'-Difluorobenzhydryl)-3-azetidinyl]5-isopropyl 2-amino-6-methyl-4-(3-nitrophenyl)-1,4-dihydropyridine-3,5-dicarboxylate] | 11.8 h | 7.0 h | -218 | – | –
6 | CC1=C(C(=O)OC(C)C)C(c2cccc(Cl)c2Cl)C(C(=O)OC2CN(C(c3ccccc3)c3ccccc3)C2)=C(N)N1 (stereo not drawn) [Compound 1-59, 3-(1-Benzhydryl-3-azetidinyl) 5-isopropyl 2-amino-4-(2,3-dichlorophenyl)-6-methyl-1,4-dihydropyridine-3,5-dicarboxylate] | 12.0 h | 6.0 h | -203 | – | –
7 | CC1=C(C(=O)OC(C)C)C(c2cccc([N+](=O)[O-])c2)C(C(=O)OC2CN(C(c3ccccc3)c3ccccc3)C2)=C(N)N1 (stereo not drawn) [Compound 1-11, 3-(1-Benzhydryl-3-azetidinyl) 5-isopropyl 2-amino-6-methyl-4-(3-nitrophenyl)-1,4-dihydropyridine-3,5-dicarboxylate] | 10.4 h | 6.0 h | -184 | -334 | duration of activity (calcium antagonism) (isolated rat aorta; isolated rat aorta): excellent duration of activity; rightwards shift of the calcium chloride dose-response curve (Ca++-blocking activity) (isolated rat aorta; calcium-free high potassium Krebs-Henseleit solution, 37° C): comparable with that of nifedipine; Tmax (time after administration before the maximum change in blood pressure) ([1]; 3 mg/kg, SHR): 5.0 h; duration of the antihypertensive activity [1, 2]: much longer than that produced by nifedipine and nicardipine; time of onset of activity / speed of lowering blood pressure [1, 2]: lowered blood pressure much more slowly than did nifedipine or nicardipine; heart rate ([1]; rat, in vivo): (but not Compound 1-11) increased heart rate
